Assay results taken from patent publication US20250098678A1, “METHOD OF CONTROLLING FUNGI” (UPL CORPORATION LIMITED, priority 2022, published 2025).

Legend:
[1] = system: Pythium ultimum; test: Anti-fungal activity of treated seeds against Pythium ultimum (field trials, patch score); type: in vivo; details: for P. ultimum patch score: seed treatment, field trial
Text: Example 2: Evaluation of Anti-Fungal Activity of Maize Seeds Treated with Cyazofamid Against Pythium ultimum The present inventors have determined the % pathogen control of Pythium ultimum control in […] treated with cyazofamid in field trials. The treatments employed and the results have been depicted in table 3 below. [table]

[2] = system: Plasmopara halstedii; test: Anti-fungal activity of treated sunflower seeds against Plasmopara halstedii (seed treatment, % incidence); type: in vivo; details: for % Incidence: sunflower seed treatment, 12 DAS, inoculated with P. halstedii
Procedure: Example 1: Evaluation of Anti-Fungal Activity of Sunflower Seeds Treated with Cyazofamid Against Plasmopara halstedii One tray for each treatment was filled with perlite that was covered with two layers of watered paper. Treated seeds were placed between the layers under sterile conditions and incubated at 22° C. to 24° C., 100% relative humidity (RH) for 48 h. Zoosporangia from cotyledons of sunflower plants previously infected by an isolate of P. halstedii were removed with deionized water. The suspension was filtered through two layers of sterile cheesecloth and the inoculum concentration was adjusted to 2×10^5 zoosporangia/ml. Treated and germinated seeds were immersed in the zoosporangial suspension for 5 hours. Bioassays were then designed and conducted under controlled growth conditions. Five pots per treatment were filled with perlite and nine sunflower seeds were sown in each pot. Plants were grown at 19° C., 70-100% relative humidity and a 10 h dark/14 h light photoperiod for 12 days. The seed arrangement was made as 50 seeds/plot (pot10×10 cm). The treatments used are depicted below. [table] The % incidence of fungal disease caused by Plasmapora halstedii was observed 12 DAS (days after sowing seeds).

## Cc1ccc(-c2c(Cl)nc(C#N)n2S(=O)(=O)N(C)C)cc1 [Cyazofamid, 4-chloro-2-cyano-N,N-dimethyl-5-p-tolylimidazole-1-sulfonamide]
[1]; compared to the untreated control, result in words
  P. ultimum patch score indicating the severity of the fungal disease: significantly low
[1]; 10 g.ai/100 kg, 25 ml/100 kg seeds
  P. ultimum patch score: 1.5 b
[1]; 20 g.ai/100 kg, 50 ml/100 kg seeds
  P. ultimum patch score: 1.5 b
[1]; 30 g.ai/100 kg, 75 ml/100 kg seeds
  P. ultimum patch score: 1.5 b
[1]; 50 g.ai/100 kg, 125 ml/100 kg seeds
  P. ultimum patch score: 1.5 b
[1]; 100 g.ai/100 kg, 250 ml/100 kg seeds
  P. ultimum patch score: 1.3 b
[2]; application rate 50 g/100/kg
  % Incidence: 0%
[2]; application rate 100 g/100/kg
  % Incidence: 0%

## COCC(=O)N(c1c(C)cccc1C)C(C)C(=O)OC (centres unmarked) [Metalaxyl]
[2]; application rate 35 g/100/kg
  % Incidence: 53.49%
[2]; application rate 60 g/100/kg
  % Incidence: 62.24%
[2]; treated sunflower seeds, result in words
  occurrence of fungal disease: high
